Results on one compound are retold here after patent US20050281749A1, “Sprayable compositions comprising a combination of pharmaceutical actives and an oily phase” (GALDERMA S.A., priority 2004, published 2005).

Data set [1] in a line: Stability of calcitriol in Miglyol 812 (caprylic/capric triglycerides), HPLC assay. The class given is physicochemical. The note with it: calcitriol 30 ppm in Miglyol 812 with 0.4% BHT. The text has this:
a) Stability of calcitriol in Miglyol 812 (caprylic/capric triglycerides): Solution of calcitriol 30 ppm in qs 100% of Miglyol 812 in the presence of 0.4% of BHT. HPLC assay technique against reference substance. At the starting time (TO) the composition is considered to contain 100% of calcitriol. Concentration of calcitriol measured in % relative to TO: […]

A short description of data set [2]: Stability of calcitriol in Cetiol SN (cetearyl isononanoate), HPLC assay. The class given is physicochemical. The note with it: calcitriol 30 ppm in Cetiol SN with 0.4% BHT. The source says: b) Stability of calcitriol in Cetiol SN (cetearyl isononanoate): Solution of calcitriol 30 ppm in qs 100% of Cetiol SN (cetearyl isononanoate) in the presence of 0.4% of BHT. HPLC assay technique against reference substance. At the starting time (TO) the composition is considered to contain 100% of calcitriol. Concentration of calcitriol measured in % relative to TO: […]

With `C=C1/C(=C\C=C2/CCC[C@]3(C)[C@@H]([C@H](C)CCCC(C)(C)O)CC[C@@H]23)C[C@@H](O)C[C@@H]1O` [calcitriol], the “Concentration of calcitriol measured in % relative to TO” value in data set [1] (+4° C., T 2 weeks) is 98.3%; in data set [1] (+4° C., T 4 weeks), 105.2%; in data set [1] (+40° C., T 2 weeks) it was 91%; in data set [1] (+40° C., T 4 weeks), 93.8%; in data set [1] (AT, T 2 weeks), 95.1%; in data set [1] (AT, T 4 weeks) it was 98.0%. In addition, the “Concentration of calcitriol measured in % relative to TO” value is on record as 98.6% in data set [2] (+4° C., T 2 weeks); 98.1% in data set [2] (+4° C., T 4 weeks); 99.0% in data set [2] (+40° C., T 2 weeks); 98.9% in data set [2] (+40° C., T 4 weeks); 98.7% in data set [2] (AT, T 2 weeks); 98.4% in data set [2] (AT, T 4 weeks).
